# Experiment: Inhibition of rhFGF2-induced cellular proliferation of HUVEC
row,IC50 [µM],SMILES
1,17.9,"COc1cccc(-c2ccc3c(c2)NC(=O)/C3=C\c2[nH]c(C)c(CCC(=O)O)c2C)c1 [3-(5-{[(3Z)-6-(3-methoxyphenyl)-2-oxo-2,3-dihydro-1H-indol-3-ylidene]methyl}-2,4-dimethyl-1H-pyrrol-3-yl)propanoic acid]"
2,18.2,"COc1cc(OC)cc(-c2ccc3c(c2)NC(=O)/C3=C\c2[nH]c(C)c(CCC(=O)O)c2C)c1 [(Z)-3-(5-((6-(3,5-dimethoxyphenyl)-2-oxoindolin-3-ylidene)methyl)-2,4-dimethyl-1H-pyrrol-3-yl)propanoic acid]"
3,> 50,Cc1[nH]c(/C=C2\C(=O)Nc3cc(-c4ccccc4)ccc32)c(C)c1CCC(=O)O

# — BindingDB's records for doi:10.1016/j.bmcl.2007.06.058 (Mahidol University, 2007)
